US9200009B2, “Polycyclic pyridone derivative having integrase inhibitory activity” (Shionogi & Co., Ltd., priority 2011, dated 2015)

Assays:
integrase = integrase (Human immunodeficiency virus type 1 group M subtype B, UniProt P04585); experiment: Integrase inhibitory activity (Experimental Example 1); format: biochemical, HIV; conditions: integrase strand transfer ELISA, absorbance OD 405 nm
Experimental: (1) Preparation of DNA Solution
By the same method as that described in Experimental Example 1 of Patent Document 2, a substrate DNA solution (2 pmol/μl) and a target DNA solution (5 pmol/μl) were prepared. […] Each sequence of a substrate DNA and a target DNA is as described in the same Experimental Example.
(2) Measurement of Inhibition Rate (IC50 Value)
Onto Immobilizer—Streptavidin Plates (manufactured by NUNC) was added 100 μl of a substrate DNA solution (2 pmol/μl). After adsorbing at room temperature for 60 minutes under shaking, it was washed with a phosphate buffer two times.
Then, to each well prepared as described above were added 51 μl of a reaction solution prepared from 12 μl of a buffer (composition: 150 mM MOPS (pH 7.2), 75 mM MnCl2, 50 mM 2-mercaptoethanol, 25% glycerol, 500 μg/ml bovine serum albumin-fraction V) and 39 μl of distilled water. Then, 9 μl of an integrase solution (30 pmol) was added, and the mixture was mixed well. To a well as a negative control (NC) was added 9 μl of a diluting solution (composition: 50 mM Hepes (pH 8.0), 10 mM DTT, 10% Glycerol, 0.5 M NaCl), and this was mixed well using a plate mixer.
After the plate was incubated at 30° C. for 60 minutes, the reaction solution was discarded, followed by washing with 200 μl of a washing buffer (composition: 150 mM MOPS (pH 7.2), 50 mM 2-mercaptoethanol, 25% glycerol, 500 μg/ml bovine serum albumin-fraction V) three times.
Then, to each well were added 53 μl of a reaction solution prepared from 12 μl of a buffer (composition: 150 mM MOPS (pH 7.2), 75 mM MgCl2, 50 mM 2-mercaptoethanol, 25% glycerol, 500 μg/ml bovine serum albumin-fraction V) and 41 μl of distilled water. Further, 6 μl of a solution of a test compound in DMSO was added to each well, and 6 μl of DMSO was added to wells as a positive control (PC) and a negative control (NC), followed by mixing well using a plate mixer. After the plate was incubated at 30° C. for 60 minutes, 1 μl of a target DNA (5 pmol/μl) was added, and this was mixed well using a plate mixer.
After each plate was incubated at 30° C. for 10 minutes, the reaction solution was discarded, followed by washing with a phosphate buffer two times. Then, an anti-digoxigenin antibody labeled with alkaline phosphatase (sheep Fab fragment: manufactured by Boehringer) was diluted 2000-fold with an antibody diluting solution, 100 μl of the diluent was added to bind at 30° C. for 1 hour, and this was washed successively with a phosphate buffer containing 0.05% Tween 20 two times, and a phosphate buffer two times. […] C abs.: Absorbance of well of compound NC abs.: Absorbance of NC PC abs.: Absorbance of PC

HIV virus = experiment: Anti-HIV activity in MT-4 cells, MTT (Experimental Example 2); format: cell-based; conditions: Human immunodeficiency virus 1, MT4, 96 h, 50% HIV inhibition concentration, 4 days incubation
Experimental: Previously, a series of two-fold dilution on test samples were carried out in a 96-well plate (50 μL/well). Two plates were made for measuring anti-HIV activity and measuring cytotoxicity. For each agent, measurement in duplicate was carried out. An MT-4 cell suspension of 2.5×10^5/mL was dispensed at 100 μL/well onto the 96-well plate containing the test samples. An HIV virus solution was dispensed at 50 μL/well onto the 96-well plate containing the test samples and the cell. To the plate for measuring cytotoxicity, a culture solution was dispensed at 50 μL/well. It was mixed by a plate mixer, and then incubated in a CO2 incubator for 4 days. […] Thirty microliters of a MTT (3-(4,5-dimethylthiazol-2-yl)-2,5-diphenyltetrazolium bromide) solution was dispensed to each well.
A reaction was allowed to occur in a CO2 incubator for 1 hour. From each well, 150 μL of the supernatant was removed such that cells are not sucked. One-hundred and fifty microliters of a cell lysis solution was added thereto, and then it was mixed well by a plate mixer until the whole cells are lysed. The mixed 96-well plates were measured by a microplate reader at two wavelengths, 560 nm/690 nm. Based on the following calculation formula, 50% HIV inhibition concentration (EC50) was calculated. […]
Based on the following calculation formula, selectivity index was calculated. […]

`C[C@@H]1CCO[C@H]2Cn3cc(-c4ncc(Cc5ccc(F)cc5)s4)c(=O)c(O)c3C(=O)N12` [Example 1] gave an IC50 (integrase) of 3.9 nM.

Work on `C[C@@H]1CCO[C@H]2Cn3cc(-c4ncc(Cc5ccc(F)cc5F)s4)c(=O)c(O)c3C(=O)N12` [Example 2] yielded an IC50 (integrase) of 2 nM and an EC50 (HIV virus) of 2.8 nM.

Compound `C[C@@H]1CCO[C@H]2Cn3cc(-c4nnc(Cc5ccc(F)cc5)s4)c(=O)c(O)c3C(=O)N12` [Example 3] has an IC50 (integrase) of 3.8 nM.

For `C[C@@H]1CCO[C@H]2Cn3cc(-c4nnc(Cc5ccc(F)cc5F)s4)c(=O)c(O)c3C(=O)N12` [Example 4], the IC50 (integrase) was 1.3 nM and the EC50 (HIV virus) was 1.7 nM.
